Structures can show the parent of a compound that is named as a salt. Where a SMILES comes first, the peptide text is derived from it. [ ]: non-standard residue; d: D form. Nva = CCC[C@H](N)C(=O)O; Sar = CNCC(=O)O
Assay: In vitro release from PLG gels into buffer at 37° C.
Format: physicochemical
Conditions: solution of 5% in 2:1 NMP/TA without PLG, 5 mM PBS buffer (pH 7.4), FIG. 1
Experimental: The samples of gel formulations of the acetate salt of formula (Ia) in PLG and NMP/TA were immersed in 5 mM PBS buffer (pH 7.4) and incubated at 37° C. At a predetermined time, 1 mL of the dissolution medium was withdrawn from the dissolution container, filtered, and assayed for the concentration of the acetate salt of formula (Ia) by HPLC. Fresh PBS buffer (1 mL) was added to replace the withdrawn medium.
The in vitro drug release of the acetate salt of formula (Ib) from the PLG gel formulations (IV) and (V) (from Example 6) was determined by the method described in Example 4.
The in vitro drug release profiles of PLG (24 KD) gel formulations were obtained by the methods described in Example 4.
Formulations of valproate (formulation VI), octanoate (formulation VII), and pivalate (formulation VIII) salts of the compound of formula (Ib) were prepared by substituting the appropriate salts (prepared as described in Example 1b) for the acetate salt in Example 6B. […] In addition, a formulation (formulation IX) that contained 6.0% pivalate salt of formula (Ib), 32.9% PLG (13 KD, 50:50 polymer ratio), 40.4% NMP and 20.7% TA was also prepared. The in vitro drug release profiles of formulations VI, VII, VIII, and IX were obtained by the methods described in Example 4 substituting 50 mM phosphate buffer (pH 7.4) for 5 mM PBS buffer. […]

in vitro release profile: no sustained release
Structure (SMILES): CCC[C@H](NC(=O)[C@@H](NC(=O)[C@H](NC(=O)[C@@H](NC(=O)CNC(=O)CN(C)C(C)=O)C(C)C)[C@H](C)CC)[C@@H](C)O)C(=O)N[C@H](C(=O)N[C@@H](CCCNC(=N)N)C(=O)N1CCC[C@H]1C(=O)NCC)[C@@H](C)CC [acetate salt of formula (Ia), N-Ac-Sar-Gly-Val-DIle-Thr-Nva-Ile-Arg-ProNHCH2CH3] (Ac-[Sar]GV[dI]T[Nva]IRP-NHEt)

Source: patent US7432245B2, “Pharmaceutical formulation comprising a peptide angiogenesis inhibitor” (Abbott Laboratories Inc., priority 2002, dated 2008)
